*1 amine or outer side, *2 acyl side, *3 side chain or, on linkers, in order; H or OH if unused. Where a SMILES comes first, the peptide text is derived from it. Bridges are numbered along the chain shown (N, C = ends). [ ]: non-standard residue; d: D form. The star is where a group is joined. X2 = O=C(O)CN1CCN(CC(=O)O)CCN(CC(=O)N[C@@H](CCC(=O)NC[C@H](O)[C@@H](O)[C@H](O)[C@H](O)CO)C(=O)*)CCN(CC(=O)O)CC1; X3 = O=C(O)CN1CCN(CC(=O)O)CCN(CC(=O)NCCCOCCOCCOCCCN*)CCN(CC(=O)O)CC1; NH(1-deoxy-D-glucityl) = OC[C@@H](O)[C@@H](O)[C@H](O)[C@@H](O)CN*; Pro(trans-4-NH2) = O=C([C@@H]1C[C@@H](N[*:3])CN1[*:1])[*:2]; DOTA = O=C(O)CN1CCN(CC(=O)O)CCN(CC(=O)*)CCN(CC(=O)O)CC1; Trp(5-Cl) = N[C@@H](Cc1c[nH]c2ccc(Cl)cc12)C(=O)O; Pyridine(2,6-diCH2) = c1cc(C[*:1])nc(C[*:2])c1; Pro(4R-NH2) = N[C@H]1CN[C@H](C(=O)O)C1; Glutaryl = O=C(CCCC(=O)[*:2])[*:1]; X7 = c1cc(CSCCN[*:2])cc(C[*:1])c1; Hyp = O=C(O)[C@@H]1C[C@@H](O)CN1; X1 = O=C(CN1CCC(N[*:1])CC1)[*:2]; Suc = O=C(CCC(=O)[*:2])[*:1]; hSer = N[C@@H](CCO)C(=O)O; Api = NC1(C(=O)O)CCNCC1; Thp = NC1(C(=O)O)CCOCC1

8 molecules from patent publication US20250296971A1, “GASTRIC INHIBITORY PEPTIDE RECEPTOR LIGANDS” (priority 2021, published 2025) can be followed below.

The target in the assay is T1, GIPR (CHO-K1-hGIPR cells) (Homo sapiens, UniProt P48546).
T1 construct: host or cells: CHO-K1
T1 sequence (P48546 22-466): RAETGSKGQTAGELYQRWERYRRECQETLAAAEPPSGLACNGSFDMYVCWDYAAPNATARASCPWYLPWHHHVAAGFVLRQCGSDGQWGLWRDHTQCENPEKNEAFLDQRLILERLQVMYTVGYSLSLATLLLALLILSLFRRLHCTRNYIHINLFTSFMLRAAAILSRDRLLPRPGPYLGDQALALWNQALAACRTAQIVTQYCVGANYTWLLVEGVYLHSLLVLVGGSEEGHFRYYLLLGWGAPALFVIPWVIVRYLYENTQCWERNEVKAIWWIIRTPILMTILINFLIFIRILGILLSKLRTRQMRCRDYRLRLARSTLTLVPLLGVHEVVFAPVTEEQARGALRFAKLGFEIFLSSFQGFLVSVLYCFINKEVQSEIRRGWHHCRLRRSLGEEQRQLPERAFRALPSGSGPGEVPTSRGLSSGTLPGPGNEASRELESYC
The experiment in a line: FACS binding assay. As to conditions: competition with 20 nM GIP-057, 4° C., 1 hour, read-out: pIC50 Category (converted). Summed up:
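Steps: detach CHO-K1-hGIPR cells (Accutase); wash in PBS/1% FCS; adjust to 500.000 cells per mL; wash ice-cold; incubate APC-streptavidin 1 μg/mL, 30 min on ice; wash twice; acquire on flow cytometer; fit MFI-concentration data with a four-parameter logistic model.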
`CC[C@H](C)[C@@H]1NC(=O)[C@H](CC(C)C)NC(=O)C2(CCN(C(=O)[C@H](CCC(=O)NC[C@H](O)[C@@H](O)[C@H](O)[C@H](O)CO)NC(=O)CN3CCN(CC(=O)O)CCN(CC(=O)O)CCN(CC(=O)O)CC3)CC2)NC(=O)[C@@H](NC(=O)[C@@H](CC(C)C)NC(=O)[C@H](CCC(=O)O)NC(=O)[C@@H]2C[C@@H](O)CN2C(=O)[C@H](Cc2c[nH]c3ccc(Cl)cc23)NC(=O)[C@H](Cc2c[nH]c3ccccc23)NC(=O)[C@H](CCO)NC(=O)CN2CCC(NC(=O)CCCC(=O)NC[C@H](O)[C@@H](O)[C@H](O)[C@H](O)CO)CC2)CSCc2cccc(n2)CSC[C@@H](C(=O)NC2CCN(CC(=O)N[C@H](CCC(=O)NC[C@H](O)[C@@H](O)[C@H](O)[C@H](O)CO)C(N)=O)CC2)NC1=O` [GIP-047, AGLU-Glutar-APAc-Hse-Trp-5Clw-Hyp-Glu-leu-[Cys(2Lut)-Apc(DOTA-glu(AGLU))-Leu-Ile-Cys]-APAc-glu(AGLU)-NH2] ({NH(1-deoxy-D-glucityl)-Glutaryl}-[X1][hSer]W[Trp(5-Cl)][Hyp]E[dL]C[Api](X2)LIC[X1][dE](NH(1-deoxy-D-glucityl))-NH2; linker 8-12 via Pyridine(2,6-diCH2)): the IC50 was 10 to 79.4 nM.

As to `CC[C@H](C)[C@@H]1NC(=O)[C@H](CC(C)C)NC(=O)C2(CCN(C(=O)CN3CCN(CC(=O)O)CCN(CC(=O)O)CCN(CC(=O)O)CC3)CC2)NC(=O)[C@@H](NC(=O)[C@@H](CC(C)C)NC(=O)[C@H](CCC(=O)O)NC(=O)[C@@H]2C[C@@H](N)CN2C(=O)[C@H](Cc2c[nH]c3ccc(Cl)cc23)NC(=O)[C@H](Cc2c[nH]c3ccccc23)NC(=O)[C@H](CCO)NC(=O)CN2CCC(NC(=O)CCCC(=O)NC[C@H](O)[C@@H](O)[C@H](O)[C@H](O)CO)CC2)CSCc2cccc(n2)CSC[C@@H](C(=O)NC2CCN(CC(=O)N[C@H](CCC(=O)NC[C@H](O)[C@@H](O)[C@H](O)[C@H](O)CO)C(N)=O)CC2)NC1=O` [GIP-050, AGLU-Glutar-APAc-Hse-Trp-5Clw-Tap-Glu-leu-[Cys(2Lut)-Apc(DOTA)-Leu-Ile-Cys]-APAc-glu(AGLU)-NH] ({NH(1-deoxy-D-glucityl)-Glutaryl}-[X1][hSer]W[Trp(5-Cl)][Pro(4R-NH2)]E[dL]C[Api](DOTA)LIC[X1][dE](NH(1-deoxy-D-glucityl))-NH2; linker 8-12 via Pyridine(2,6-diCH2)), the IC50 is 10 to 79.4 nM.

Turning to `CC[C@H](C)[C@@H]1NC(=O)[C@H](CC(C)C)NC(=O)C2(CCN(C(=O)CN3CCN(CC(=O)O)CCN(CC(=O)O)CCN(CC(=O)O)CC3)CC2)NC(=O)[C@@H](NC(=O)[C@@H](CC(C)C)NC(=O)[C@H](CCC(=O)O)NC(=O)[C@@H]2C[C@@H](N)CN2C(=O)[C@H](Cc2c[nH]c3ccc(Cl)cc23)NC(=O)[C@H](Cc2c[nH]c3ccccc23)NC(=O)[C@H](CC(=O)O)NC(=O)CCCC(=O)NC[C@H](O)[C@@H](O)[C@H](O)[C@H](O)CO)CSCc2cccc(n2)CSC[C@@H](C(=O)NC2CCN(CC(=O)N[C@H](CCC(=O)NC[C@H](O)[C@@H](O)[C@H](O)[C@H](O)CO)C(N)=O)CC2)NC1=O` [GIP-051, AGLU-Glutar-Asp-Trp-5Clw-Tap-Glu-leu-[cys(2Lut)-Apc(DOTA)-Leu-Ile-Cys]-APAc-glu(AGLU)-NH2] ({NH(1-deoxy-D-glucityl)-Glutaryl}-DW[Trp(5-Cl)][Pro(4R-NH2)]E[dL]C[Api](DOTA)LIC[X1][dE](NH(1-deoxy-D-glucityl))-NH2; linker 7-11 via Pyridine(2,6-diCH2)), the IC50 was 10 to 79.4 nM.

Turning to `CC[C@H](C)[C@@H]1NC(=O)[C@H](CC(C)C)NC(=O)C2(CCN(C(=O)CN3CCN(CC(=O)O)CCN(CC(=O)O)CCN(CC(=O)O)CC3)CC2)NC(=O)[C@@H](NC(=O)[C@@H](CC(C)C)NC(=O)[C@H](CCC(=O)O)NC(=O)[C@@H]2C[C@@H](N)CN2C(=O)[C@H](Cc2c[nH]c3ccc(Cl)cc23)NC(=O)[C@H](Cc2c[nH]c3ccccc23)NC(=O)[C@H](CC(=O)O)NC(=O)CCCC(=O)NC[C@H](O)[C@@H](O)[C@H](O)[C@H](O)CO)CSCc2cccc(n2)CSC[C@@H](C(=O)NC2CCN(CC(=O)N[C@H](CCC(=O)NC[C@H](O)[C@@H](O)[C@H](O)[C@H](O)CO)C(N)=O)CC2)NC1=O` [GIP-052, AGLU-Glutar-Asp-Trp-5Clw-Tap-Glu-leu-[cys(2Lut)-Apc(DOTA)-Leu-Ile-cys]-APAc-glu(AGLU)-NH2] ({NH(1-deoxy-D-glucityl)-Glutaryl}-DW[Trp(5-Cl)][Pro(4R-NH2)]E[dL]C[Api](DOTA)LIC[X1][dE](NH(1-deoxy-D-glucityl))-NH2; linker 7-11 via Pyridine(2,6-diCH2)), the IC50 is 10 to 79.4 nM.

Regarding `CC[C@H](C)[C@@H]1NC(=O)[C@H](CC(C)C)NC(=O)C2(CCN(C(=O)CN3CCN(CC(=O)O)CCN(CC(=O)O)CCN(CC(=O)O)CC3)CC2)NC(=O)[C@@H](NC(=O)[C@@H](CC(C)C)NC(=O)[C@H](CCC(=O)O)NC(=O)[C@@H]2CCCN2C(=O)[C@H](Cc2c[nH]c3ccc(Cl)cc23)NC(=O)[C@H](Cc2c[nH]c3ccccc23)NC(=O)[C@H](CC(=O)O)NC(=O)CCC(=O)NCCCOCCOCCOCCCNC(=O)CN2CCN(CC(=O)O)CCN(CC(=O)O)CCN(CC(=O)O)CC2)CSCc2cccc(c2)CSCCNC1=O` [GIP-053, DOTA-Ttds-Asp-Trp-5Clw-Pro-Glu-leu-[Cys(3MeBn)-Apc(DOTA)-Leu-Ile-AET]] ({X3-Suc}-DW[Trp(5-Cl)]PE[dL]C[Api](DOTA)LI; linker 7-C via X7), the IC50 is under 10 nM.

Take `CC[C@H](C)[C@@H]1NC(=O)[C@H](CC(C)C)NC(=O)C2(CCOCC2)NC(=O)[C@@H](NC(=O)[C@@H](CC(C)C)NC(=O)[C@H](CCC(=O)O)NC(=O)[C@@H]2C[C@@H](O)CN2C(=O)[C@H](Cc2c[nH]c3ccc(Cl)cc23)NC(=O)[C@H](Cc2c[nH]c3ccccc23)NC(=O)[C@H](CC(=O)O)NC(=O)CCC(=O)NCCCOCCOCCOCCCNC(=O)CN2CCN(CC(=O)O)CCN(CC(=O)O)CCN(CC(=O)O)CC2)CSCc2cccc(n2)CSC[C@@H](C(=O)N[C@@H](CCCCNC(=O)CN2CCN(CC(=O)O)CCN(CC(=O)O)CCN(CC(=O)O)CC2)C(N)=O)NC1=O` [GIP-054, DOTA-Ttds-Asp-Trp-5Clw-Hyp-Glu-leu-[Cys(2Lut)-Thp-Leu-Ile-Cys]-Lys(DOTA)-NH2] ({X3-Suc}-DW[Trp(5-Cl)][Hyp]E[dL]C[Thp]LICK(DOTA)-NH2; linker 7-11 via Pyridine(2,6-diCH2)): the IC50 is under 10 nM.

As to `CC[C@H](C)[C@@H]1NC(=O)[C@H](CC(C)C)NC(=O)C2(CCN(C(=O)CN3CCN(CC(=O)O)CCN(CC(=O)O)CCN(CC(=O)O)CC3)CC2)NC(=O)[C@@H](NC(=O)[C@@H](CC(C)C)NC(=O)[C@H](CCC(=O)O)NC(=O)[C@@H]2C[C@@H](O)CN2C(=O)[C@H](Cc2c[nH]c3ccc(Cl)cc23)NC(=O)[C@H](Cc2c[nH]c3ccccc23)NC(=O)[C@H](CC(=O)O)NC(=O)CCC(=O)NCCCOCCOCCOCCCNC(=O)CN2CCN(CC(=O)O)CCN(CC(=O)O)CCN(CC(=O)O)CC2)CSCc2cccc(n2)CSC[C@@H](C(=O)N[C@@H](CCCCNC(=O)CN2CCN(CC(=O)O)CCN(CC(=O)O)CCN(CC(=O)O)CC2)C(N)=O)NC1=O` [GIP-055, DOTA-Ttds-Asp-Trp-5Clw-Hyp-Glu-leu-[Cys(2Lut)-Apc(DOTA)-Leu-Ile-Cys]-Lys(DOTA)-NH2] ({X3-Suc}-DW[Trp(5-Cl)][Hyp]E[dL]C[Api](DOTA)LICK(DOTA)-NH2; linker 7-11 via Pyridine(2,6-diCH2)), the IC50 was under 10 nM.

`CC[C@H](C)[C@@H]1NC(=O)[C@H](CC(C)C)NC(=O)C2(CCN(C(=O)CN3CCN(CC(=O)O)CCN(CC(=O)O)CCN(CC(=O)O)CC3)CC2)NC(=O)[C@@H](NC(=O)[C@@H](CC(C)C)NC(=O)[C@H](CCC(=O)O)NC(=O)[C@@H]2C[C@@H](NC(=O)CN3CCN(CC(=O)O)CCN(CC(=O)O)CCN(CC(=O)O)CC3)CN2C(=O)[C@H](Cc2c[nH]c3ccc(Cl)cc23)NC(=O)[C@H](Cc2c[nH]c3ccccc23)NC(=O)[C@H](CC(=O)O)NC(=O)CCC(=O)NCCCOCCOCCOCCCNC(=O)CN2CCN(CC(=O)O)CCN(CC(=O)O)CCN(CC(=O)O)CC2)CSCc2cccc(n2)CSC[C@@H](C(=O)N[C@@H](CCCCNC(=O)CN2CCN(CC(=O)O)CCN(CC(=O)O)CCN(CC(=O)O)CC2)C(N)=O)NC1=O` [GIP-056, DOTA-Ttds-Asp-Trp-5Clw-Tap(DOTA)-Glu-leu-[Cys(2Lut)-Apc(DOTA)-Leu-Ile-Cys]-Lys(DOTA)-NH2] ({X3-Suc}-DW[Trp(5-Cl)][Pro(trans-4-NH2)](DOTA)E[dL]C[Api](DOTA)LICK(DOTA)-NH2; linker 7-11 via Pyridine(2,6-diCH2)): the IC50 was under 10 nM.
